Data reported in US11730712B2, “Functionalized long-chain hydrocarbon mono- and di-carboxylic acids and derivatives thereof, and their use for the prevention or treatment of disease” (ESPERVITA THERAPEUTICS, INC., priority 2021, dated 2023).
Values joined by “and” are separate entries in the source; they are usually repeats but may differ in a detail not shown here. Equal values may be shown once.

Assays:
[1] = system: mouse kidney; experiment: Kidney histology in DEN NASH-HCC mice after 4 weeks of treatment; format: in vivo; set-up: key to Tubular injury score, Average / Tubular mitoses score, Average / Tubular vacuoles score, Average / Interstitial inflammation score, Average / Interstitial fibrosis score, Average / Glomerular score, Average: 0 = not present to 5 = severe, overwhelming change; mean of mice; key to Tubular mitoses score, individual mice / Interstitial inflammation score, individual mice / Interstitial fibrosis score, individual mice / Glomerular score, individual mice / Tubular injury score, individual mice / Tubular vacuoles score, individual mice: 0—not present; 1—minimal, inconspicuous change; 2—slight, noticeable but not a prominent feature; 3—moderate, prominent feature; 4—marked, dominant but not overwhelming feature; 5—severe, overwhelming change; conditions: for Glomerular score, individual mice / Interstitial fibrosis score, individual mice / Interstitial inflammation score, individual mice / Tubular injury score, individual mice / Tubular mitoses score, individual mice / Tubular vacuoles score, individual mice / Glomerular score, Average / Interstitial fibrosis score, Average / Interstitial inflammation score, Average / Tubular injury score, Average / Tubular mitoses score, Average / Tubular vacuoles score, Average: kidney; for Glomerular score, Average / Interstitial fibrosis score, Average / Interstitial inflammation score, Average / Tubular injury score, Average / Tubular mitoses score, Average / Tubular vacuoles score, Average: 8 mice
Experimental: Kidney Histology. Following fixation with 10% neutral buffered formalin for 46 hours, kidneys were cleaved longitudinally through hilium and immersed in 70% ethanol. Kidneys were then processed, paraffin embedded, serially sectioned and stained with haematoxylin and eosin (H&E) and Masson's Trichrome (MTC) by the McMaster Immunology Research Centre histology Core Facility. Blinded kidney histological scores for tubular injury, tubular mitoses, tubular vacuoles, interstitial inflammation, interstitial fibrosis, glomerular were assigned by pathologists.
Kidney Histology. […] In Table 15, pathologist's scoring is as follows: 0—not present; 1—minimal, inconspicuous change; 2—slight, noticeable but not a prominent feature; 3—moderate, prominent feature; 4—marked, dominant but not overwhelming feature; 5—severe, overwhelming change.

[2] = system: bone marrow derived macrophages (BMDMs); experiment: LPS-induced glycolysis and inflammation in bone marrow derived macrophages; format: cell-based, mouse; conditions: 50 μM compound, 4 hours
Experimental: Macrophage were isolated as follows: femurs and tibia were collected from mice, cleaned of any soft tissues and the ends were cut off from each bone. The tibia and femur were then transferred into 1.5 mL Eppendorf tubes and the marrow was extracted via centrifugation (1900 g×5 min), resuspended in DMEM and strained through a 40 μm strainer into a 50 ml falcon tube. The strainer was rinsed with an additional 40 mL of DMEM, the cell suspension was transferred to a T175 flask, an additional 60 mL of DMEM was added and the cells were cultured at 37° C. for 4 hours. Differentiation was initiated by adding 20 mL of L929 fibroblast conditioned media and 12 mL was plated on 100 mm dishes. The cells were then left for 7 days to differentiate into macrophages. The media was then aspirated, cells were scraped in 3 mL of DMEM, then pooled and diluted at a ratio of 1:2 with DMEM. The cell suspension was plated in 12-well plates and cells were allowed to adhere overnight. […] Changes in gene expression were calculated using 2-delta cT method. Macrophage glycolytic rates were assessed using a Seahorse Bioanalyzer (XFe96, Agilent Scientific Instruments). […] The following day cells were serum-starved for 2 hours then treated with LPS (100 ng/mL) and Compound I-1 (50 μM) and glycolytic rate was analyzed (Agilent Seahorse XFp Cell Energy Phenotype Test Kit, Cat #103275-100).

[3] = system: Il-1b mRNA; experiment: Il-1b mRNA by RT-qPCR; format: cell-based
[4] = system: Il-6 mRNA; experiment: Il-6 mRNA by RT-qPCR; format: cell-based
[5] = system: tumor cancer pathway gene panel; experiment: Nanostring nCounter Cancer panel gene expression in tumor of DEN-injected mice; format: in vivo, mouse; conditions: 100 mg/kg, 4 weeks
Experimental: Nanostring Analysis. RNA was extracted from paired liver and tumor tissue from vehicle, Compound I-1 (100 mg/kg) and Compound I-32 (100 mg/kg) treated mice using an RNeasy kit (Qiagen, Calif., USA) as per manufacturer's protocol. All RNA samples passed the BioAnalyzer quality control test. The expression of target genes in liver and tumor were analyzed using the nCounter Fibrosis and Cancer Panel (NanoString Technologies, Inc., WA, USA), respectively according to manufacturer's protocol at the McMaster Genomics Facility. Technical and biological normalization against global geometric mean was performed in nSolver 4.0 software (NanoString Technologies). Technical normalization was performed in the nSolver software (version 4.0.70) by normalizing sample target raw counts to the geometric mean of positive control spike-ins. […] Pathway scores were calculated as the first principal component of the normalized expression values for all genes in each pathway and samples were compiled according to experimental groups to determine average pathway scores. Statistical significance was calculated between experimental groups using multiple t-tests and p-values were corrected for multiple comparisons using Benjamin-Hochberg false discovery rate. […]

[6] = system: bone marrow derived macrophages (BMDMs); experiment: LPS-induced glycolysis in bone marrow derived macrophages (Seahorse); format: cell-based; conditions: BMDMs serum-starved 2 hours, LPS (10 ng/mL)+I-1 for 4 hours; Seahorse bioanalyzer
Experimental: Differentiated bone marrow derived macrophages were serum-starved for 2 hours then treated with vehicle (Control), LPS (10 ng/mL) or LPS+ACLYi (I-1) for 4 hours. Glycolytic rate was assessed using Seahorse bioanalyzer.

| Compound | kidney pathological differences vs Vehicle [1] | Glomerular score, individual mice [1] | Interstitial fibrosis score, individual mice [1] | Interstitial inflammation score, individual mice [1] | Tubular injury score, individual mice [1] | Tubular mitoses score, individual mice [1] | Tubular vacuoles score, individual mice [1] | Glomerular score, Average [1] | Interstitial fibrosis score, Average [1] | Interstitial inflammation score, Average [1] | Tubular injury score, Average [1] | Tubular mitoses score, Average [1] | Tubular vacuoles score, Average [1] | LPS-induced glycolysis (Seahorse) and inflammation (Il-6, Il-1b mRNA) [2] | marker of inflammation, Il-1b mRNA [3] | marker of inflammation, Il-6 mRNA [4] | effects on tumor gene expression pathways related to cancer progression and survival [5] | LPS-induced glycolysis (glycolytic rate) [6] |
| --- | --- | --- | --- | --- | --- | --- | --- | --- | --- | --- | --- | --- | --- | --- | --- | --- | --- | --- |
| CC(C)(CCCCc1cccc(CCCCC(C)(C)C(=O)O)c1)C(=O)O [Compound I-32, 6-[3-(5-carboxy-5-methylhexyl)-phenyl]-2,2-dimethylhexanoic acid] | no pathological differences | 0 and 0.5 (5×) and 1 (2×) | 0.5 (2×) and 1 (3×) and 2 and 1.5 (2×) | 0 (3×) and 2.5 and 1 and 1.5 and 0.5 (2×) | 0 (3×) and 1.5 (4×) and 1 | 0 (4×) and 1 (2×) and 0.5 (2×) | 0.5 and 3.5 and 1.5 and 3 and 2 and 1 (3×) | 0.56 | 1.13 | 0.75 | 0.88 | 0.38 | 1.69 | – | – | – | – | – |
| CC(C)(CCCCc1ccc(CCCCC(C)(C)C(=O)O)cc1)C(=O)O [Compound I-1, 6-[4-(5-carboxy-5-methylhexyl)-phenyl]-2,2-dimethylhexanoic acid] | no pathological differences | 0 (3×) and 1 (2×) and 0.5 (3×) | 1 (4×) and 0.5 (2×) and 0 and 1.5 | 0 (5×) and 0.5 (3×) | 1.5 and 1 and 0.5 (4×) and 0 (2×) | 1 and 0 (3×) and 0.5 (4×) | 3.5 and 1.5 (3×) and 3 and 0.5 (2×) and 1 | 0.44 | 1.0 | 0.19 | 0.56 | 0.38 | 1.63 | suppression of LPS-induced glycolysis and inflammation | suppression | suppression | exerted pronounced effects on gene expression pathways related to cancer progression and survival | suppression |
